Patent US6433186B1, “Amidino derivatives and their use as thormbin inhibitors” (AstraZeneca AB, priority 2000, dated 2002)

Legend:
[1] = Test G: Determination of in vitro Stability, human liver microsomes; type: in vitro ADME; settings: liver microsomes from humans, 37° C., up to 60 minutes
Protocol: (§1) Determination of in vitro Stability
(§2) Liver microsomes were prepared from Sprague-Dawley rats and human liver samples according to internal SOPs. The compounds were incubated at 37° C. at a total microsome protein concentration of 3 mg/mL in a 0.05 mol/L TRIS buffer at pH 7.4, in the presence of the cofactors NADH (2.5 mmol/L) and NADPH (0.8 mmol/L). The initial concentration of compound was 5 or 10 μmol/L. Samples were taken for analysis up to 60 minutes after the start of the incubation. The enzymatic activity in the collected sample was immediately stopped by adding 20% […] at a volume corresponding to 3.3% of the total sample volume. The concentration of compound remaining (FINAL CONC) in the 60 min. sample was determined by means of LCMS using a sample collected at zero time as reference (START CONC). The % of degraded thrombin inhibitor was calculated as: [formula]

[2] = Test G: Determination of in vitro Stability, rat liver microsomes; type: in vitro ADME, Sprague-Dawley rats; settings: liver microsomes from rats, 37° C., up to 60 minutes
Protocol: as §1, §2

[3] = Test E: Determination of Thrombin Time ex vivo (plasma concentration of thrombin inhibitor after oral or parenteral administration); type: in vivo, rat; settings: conscious rats
From the text: Determination of Thrombin Time ex vivo
The inhibition of thrombin after oral or parenteral administration of the compounds of the invention, dissolved in ethanol:Solutol™:water (5:5:90), is examined in conscious rats which, one or two days prior to the experiment, are equipped with a catheter for blood sampling from the carotid artery. On the experimental day blood samples are withdrawn at fixed times after the administration of the compound into plastic tubes containing 1 part sodium citrate solution (0.13 mol per L) and 9 parts of blood. The tubes are centrifuged to obtain platelet poor plasma.
50 μL of plasma samples are precipitated with 100 μL of cold acetonitrile. The samples are centrifuged for 10 minutes at 4000 rpm. 75 μL of the supernatant is diluted with 75 μL of 0.2% formic acid. 10 μL volumes of the resulting solutions are analysed by LC-MS/MS and the concentrations of thrombin inhibitor are determined using standard curves.

Q: For `CNc1cc(Cl)cc([C@@H](O)C(=O)N2CC[C@H]2C(=O)NCc2ccc(C(N)=NOC)cc2)c1` [Example 3, Ph(3-Cl)(5-NHMe)-(R)CH(OH)C(O)-(S)Aze-Pab(OMe)], which “conversion to the corresponding active inhibitor (free amidine)” value [1] is on record?
A: Its value is “converted to the corresponding active inhibitor (free amidine)”.

Q: What about the “conversion to the corresponding active inhibitor (free amidine)” value [2] of the same molecule?
A: Its value is “converted to the corresponding active inhibitor (free amidine)”.

Q: And the “oral and/or parenteral bioavailability as the corresponding active inhibitor (free amidine)” value [3]?
A: Its value is “exhibit oral and/or parenteral bioavailability in the rat as the corresponding active inhibitor (free amidine)”.

Q: For `CC(=O)Nc1cc(Cl)cc([C@@H](O)C(=O)N2CC[C@H]2C(=O)NCc2ccc(C(N)=NOC(C)C)cc2)c1` [Example 6, Ph(3-Cl)(5-NHAc)-(R)CH(OH)C(O)-(S)Aze-Pab(OiPr)], which “oral and/or parenteral bioavailability as the corresponding active inhibitor (free amidine)” value [3] is on record?
A: The value was “exhibit oral and/or parenteral bioavailability in the rat as the corresponding active inhibitor (free amidine)”.
